Reference: publication PMC12084609, “Structural insights into small-molecule agonist recognition and activation of complement receptor C3aR” (The EMBO Journal, 2025)
Where a chain is given by its changes, count along the chain named. “And” between values parts separate entries of the source, which are not always exact repeats. Equal entries are not always repeated. Where two headings read alike, the source gives them in different places.

Key:
Assay type in all cases: cell-based
C3aR WT = target: T1, C3aR WT (Homo sapiens, UniProt Q16581); assay: GloSensor-based cAMP assay, WT C3aR (HEK293T); settings: for remaining activity at 0.0001 µM / remaining activity at 10 pM: HEK-293T; for IC50: WT C3aR
T1 construct: expressed in transfected cells; host or cells: HEK293T
T1 sequence (Q16581 1-482): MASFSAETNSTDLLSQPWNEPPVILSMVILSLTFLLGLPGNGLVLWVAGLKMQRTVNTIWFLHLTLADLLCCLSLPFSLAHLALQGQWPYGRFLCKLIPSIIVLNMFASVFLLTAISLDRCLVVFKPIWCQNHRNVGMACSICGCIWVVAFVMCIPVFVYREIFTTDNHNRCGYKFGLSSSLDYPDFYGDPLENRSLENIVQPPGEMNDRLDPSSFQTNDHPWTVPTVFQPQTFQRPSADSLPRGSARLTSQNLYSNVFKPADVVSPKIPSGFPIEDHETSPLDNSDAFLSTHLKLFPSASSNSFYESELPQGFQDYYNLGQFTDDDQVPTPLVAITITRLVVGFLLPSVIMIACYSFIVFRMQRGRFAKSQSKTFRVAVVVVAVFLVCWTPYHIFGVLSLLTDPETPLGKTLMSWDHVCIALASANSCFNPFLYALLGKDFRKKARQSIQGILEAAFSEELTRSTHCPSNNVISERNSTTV
Procedure: (§1) HEK293T cells were seeded on 6-well plates (NEST) and transfected with pGlosensor™-22F plasmids (Promega) and pcDNA3.1 plasmids encoding C3aR or its mutants an with N-terminal FLAG tag. After 48 h, cells were detached with Accutase solution (Sigma-Aldrich) and washed with PBS, and resuspended in assay buffer (CO2-independent medium with 0.5 mg mL^−1D-luciferin). 100,000–200,000 cells were seeded on 96-well white bottom plates (SPL) and incubated at 37 °C for 45 min followed by 45 min incubation at room temperature. After 90 min of incubation, basal luminescence signals were recorded. In total, 25 μl of test ligand with various concentrations and 1 μM Forskolin (Sigma-Aldrich) were treated to the cells and luminescence signals were measured by Tristar 2 LB 942 multimode reader (Berthold). […] Relative luminescence unit (%) was calculated with the signal of wells treated with vehicle as 0% and the signal of wells treated with 1 μM Forskolin as 100% (DiRaddo et al, [2014]). Nonlinear regression was performed using a three-parameter logistic equation.

C3aR I421^7.39A = target: T2, C3aR I421^7.39A (Homo sapiens, UniProt Q16581, I421A); assay: GloSensor-based cAMP assay, C3aR mutant I421A
T2 construct: expressed in transfected cells; host or cells: HEK293T
T2 sequence (Q16581 1-482 I421A): T1 sequence (Q16581 1-482) with I421A
Procedure: as §1

C3aR V103^3.33A = target: T3, C3aR V103^3.33A (Homo sapiens, UniProt Q16581, V103A); assay: GloSensor-based cAMP assay, C3aR mutant V103A
T3 construct: expressed in transfected cells; host or cells: HEK293T
T3 sequence (Q16581 1-482 V103A): T1 sequence (Q16581 1-482) with V103A
Procedure: as §1

C3aR = C3aR (Homo sapiens, UniProt Q16581); assay: Gi recruitment BRET assay (C3aR-eYFP / Gαi-Rluc8, HEK293T); settings: for ΔBRET (ligand-vehicle): individual replicates
Sequence of C3aR (P63096 2-354 partner limits assumed, one chain of several): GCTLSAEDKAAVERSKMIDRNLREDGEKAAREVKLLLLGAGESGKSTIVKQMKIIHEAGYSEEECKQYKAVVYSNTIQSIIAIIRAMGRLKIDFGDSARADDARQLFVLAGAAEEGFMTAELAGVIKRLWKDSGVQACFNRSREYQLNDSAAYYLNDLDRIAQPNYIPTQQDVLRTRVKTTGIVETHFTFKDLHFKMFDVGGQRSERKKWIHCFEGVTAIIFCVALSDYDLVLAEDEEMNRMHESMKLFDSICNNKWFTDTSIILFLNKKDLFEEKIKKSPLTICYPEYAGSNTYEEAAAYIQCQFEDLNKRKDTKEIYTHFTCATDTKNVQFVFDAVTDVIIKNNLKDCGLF
Sequence of C3aR (P62873 2-340 partner limits assumed, one chain of several): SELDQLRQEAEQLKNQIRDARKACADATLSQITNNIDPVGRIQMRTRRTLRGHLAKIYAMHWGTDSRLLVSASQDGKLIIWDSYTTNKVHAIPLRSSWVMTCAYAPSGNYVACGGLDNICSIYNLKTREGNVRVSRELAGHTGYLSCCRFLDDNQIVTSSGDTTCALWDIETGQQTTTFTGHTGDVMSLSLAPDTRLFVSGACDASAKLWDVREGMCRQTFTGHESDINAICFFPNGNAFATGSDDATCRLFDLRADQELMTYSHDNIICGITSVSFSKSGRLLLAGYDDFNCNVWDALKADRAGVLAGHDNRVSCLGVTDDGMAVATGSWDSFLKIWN
Sequence of C3aR (P59768 2-68 partner limits assumed, one chain of several): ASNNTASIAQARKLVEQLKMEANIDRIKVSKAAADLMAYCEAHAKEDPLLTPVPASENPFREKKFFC
Procedure: HEK293T cells were seeded on 6-well plates (NEST) and transfected with pcDNA3.1 plasmids encoding C3aR-eYFP, Gαi-Rluc8, Gβ1, and Gγ2 with a ratio of 5:1:1:1. After 48 h, cells were harvested and resuspended with in PBS. Cells were treated with test ligand with various concentrations and seeded on 96-well white bottom plates (SPL). After 3 min incubation at 37 °C, coelenterazine h (Nanolight) was added with a final concentration of 10 μM. Luminescence and fluorescence were measured using a Tristar 2 LB 942 multimode reader (Berthold).

[1] = Dunnett's multiple comparisons test, WT minus mutant

## Cc1cc(C(c2ccc(Cl)cc2)c2ccc(Cl)cc2)sc1C(=O)N[C@@H](CCCNC(=N)N)C(=O)O [JR14a, reference compound]
C3aR WT; read-out: cAMP response (% Forskolin), Log[ligand (M)] -10, individual replicates
  remaining activity at 0.0001 µM: 93.3%
C3aR WT; read-out: cAMP response (% Forskolin), Log[ligand (M)] -11, individual replicates
  remaining activity at 10 pM: 95.3%
C3aR WT; read-out: cAMP response (% Forskolin), WT, Log[JR14a (M)] -10, single replicates
  remaining activity at 0.0001 µM: 93.3%
C3aR WT; read-out: cAMP response (% Forskolin), WT, Log[JR14a (M)] -11, single replicates
  remaining activity at 10 pM: 95.3%
C3aR WT; decrease in cAMP levels, read-out: IC50
  IC50: 4 nM
C3aR WT; individual replicates, read-out: pIC50 (Replicate) (converted)
  IC50: 6.31 nM and 3.98 nM and 5.01 nM
C3aR WT; from BRET and cAMP accumulation assays
  mode of action at C3aR: agonist
C3aR WT; pIC50 (Replicate), individual replicates
  IC50: 2.63 nM and 3.09 nM and 7.08 nM (2×) and 5.75 nM (2×) and 11.5 nM and 8.13 nM and 2.45 nM (2×) and 1.78 nM
C3aR WT; pIC50 Value, Figure EV1B numerical data, curve fit
  IC50: 3.89 nM
C3aR WT; pIC50 ± SEM (Mean), 1 μM Forskolin, mean of independent experiments
  IC50: 4.57 nM
C3aR WT; span of cAMP response (% Forskolin) curve, Figure EV1B numerical data
  Span Value: 84.43
C3aR I421^7.39A; [1]
  Mean Diff. of pIC50, WT vs. I421A: 1.797
C3aR I421^7.39A; I421A, Log[JR14a (M)] -8, single replicates, read-out: cAMP response (% Forskolin)
  remaining activity at 0.01 µM: 91.4%
C3aR I421^7.39A; I421A, Log[JR14a (M)] -9, single replicates, read-out: cAMP response (% Forskolin)
  remaining activity at 0.001 µM: 92.7%
C3aR I421^7.39A; I421A, Log[JR14a (M)] -10, single replicates, read-out: cAMP response (% Forskolin)
  remaining activity at 0.0001 µM: 96.4%
C3aR I421^7.39A; I421A, Log[JR14a (M)] -11, single replicates, read-out: cAMP response (% Forskolin)
  remaining activity at 10 pM: 93.5%
C3aR I421^7.39A; I421^7.39A mutant
  reduction in ligand-induced signaling vs WT: 60 fold
C3aR I421^7.39A; I421^7.39A relative to WT C3aR
  ΔpIC50 ± SE of Diff.: -1.80 ± 0.06
C3aR I421^7.39A; IC50, I421^7.39A, dose-response plot
  IC50: 204 nM
C3aR I421^7.39A; pIC50 (Replicate), I421^7.39A, individual replicates
  IC50: 229 nM and 263 nM and 331 nM and 115 nM
C3aR I421^7.39A; pIC50 ± SEM (Mean), I421^7.39A, mean of independent experiments
  IC50: 219 nM
C3aR V103^3.33A; [1]
  Mean Diff. of pIC50, WT vs. V103A: 0.201
C3aR V103^3.33A; IC50, V103^3.33A, dose-response plot
  IC50: 8.93 nM
C3aR V103^3.33A; V103^3.33A relative to WT C3aR
  ΔpIC50 ± SE of Diff.: -0.20 ± 0.05
C3aR V103^3.33A; pIC50 (Replicate), V103^3.33A, individual replicates
  IC50: 12.9 nM and 14.8 nM and 3.02 nM
C3aR V103^3.33A; pIC50 ± SEM (Mean), V103^3.33A, mean of independent experiments
  IC50: 8.32 nM
C3aR; Log[ligand (M)] -6
  ΔBRET (ligand-vehicle): 0.012 and 0.008 and 0.015 and 0.018
C3aR; Log[ligand (M)] -7
  ΔBRET (ligand-vehicle): 0.005 and 0.015 and 0.017
C3aR; Log[ligand (M)] -8
  ΔBRET (ligand-vehicle): 0.004 and 0.00244 and 0.012 and 0.018
C3aR; Log[ligand (M)] -9
  ΔBRET (ligand-vehicle): 0.002 and -0.000881 and 0.00951 and 0.012
C3aR; Log[ligand (M)] -10
  ΔBRET (ligand-vehicle): 0.00084 and -0.0022 and 0.006 and 0.009
C3aR; Log[ligand (M)] -11
  ΔBRET (ligand-vehicle): 0.001 and -0.004 and 0.005 and 0.010
C3aR; Log[ligand (M)] -12
  ΔBRET (ligand-vehicle): -6.28e-5 and 0.00465 and 0.004
C3aR; dose-dependent increase in BRET ratio, read-out: EC50
  EC50: 5 nM
C3aR; pEC50 ± SEM, Gi recruitment to C3aR, Appendix Table S1A
  EC50: 4.57 nM
C3aR; span of ΔBRET curve, Figure EV1A numerical data
  Span Value: 0.010
